Data taken from US12049463B2, “Crystalline form of Tolebrutinib” (GENZYME CORPORATION, priority 2020, dated 2024).
Entries after “also recorded” stand apart in the source; their conditions may differ.

How the values were obtained:
Format in all cases: physicochemical
[1] = Physical and chemical stability of Form CSI on storage (purity by UPLC, solid form by XRPD); conditions: for Time for which crystalline state doesn't change (stable): open and sealed package
Excerpt: X-ray powder diffraction patterns in the present disclosure were acquired by a Bruker X-ray powder diffractometer. The parameters of the X-ray powder diffraction method of the present disclosure are as follows:
(§1) The related substance in the present disclosure was detected by UPLC and the parameters are shown below.
Said “open packaged” is putting the sample into a glass vial, covering the vial with aluminum foil, and punching 5-10 holes on the foil.
Said “sealed packaged” is putting the sample into a glass vial, capping the vial tightly, and sealing the vial in an aluminum foil bag.
A certain amount of Form CSI of the present disclosure and prior art amorphous were weighed and stored under 25° C./60% RH, 40° C./75% RH and 60° C./75% RH conditions, respectively. The purity and solid form were determined by UPLC and XRPD.

[2] = Stability at high temperature (80° C., purity by UPLC); conditions: for Chemical stability in words / Final purity / Purity change: 2 days; for Final purity / Purity change: glass vial with cap; for Initial purity: before storage at 80° C.
Protocol: as §1
Approximately 10 mg of Form CSI of the present disclosure and prior art amorphous were stored at 80° C. for 2 days, and the initial and final purities were determined by UPLC, as shown in Table 11.

[3] = Hygroscopicity by dynamic vapor sorption (DVS); conditions: for Weight gain at 80% RH: 25° C.; for Hygroscopicity class: weight gain at 80% RH, Chinese Pharmacopoeia definition
Protocol: Dynamic Vapor Sorption (DVS) was measured via an SMS (Surface Measurement Systems Ltd.) intrinsic DVS instrument. Typical Parameters for DVS test are as follows:
Gas and flow rate: nitrogen, 200 mL/min
RH range: 0% RH to 95% RH
Certain amounts of Form CSI of the present disclosure and prior art amorphous were sampled for hygroscopicity tests using dynamic vapor sorption (DVS) instrument. The weight change at each relative humidity is recorded during the cycle of 0% RH-95% RH-0% RH at 25° C., and the experimental results are listed in Table 12. The DVS plots of Form CSI and amorphous are as depicted in FIG. 8 and FIG. 9, respectively.
Description and definition of hygroscopicity (general notice 9103 drug hygroscopicity test guidelines in 2020 edition of Chinese Pharmacopoeia, experimental condition: 25±1° C., 80±2% RH): […]

[4] = XRPD before and after formulation process; conditions: before and after the formulation process
Protocol: According to the formulation and process in Table 13 and Table 14, the drug products were prepared with an appropriate amount of Form CSI of the present disclosure. XRPD were tested before and after formulation.

[5] = 25° C./60% RH, open packaged, 6 months
[6] = 25° C./60% RH, sealed packaged, 6 months
[7] = 40° C./75% RH, open packaged, 6 months
[8] = 40° C./75% RH, sealed packaged, 6 months
[9] = 60° C./75% RH, open packaged, 1 month
[10] = 60° C./75% RH, sealed packaged, 1 month

Compound: C=CC(=O)N1CCC[C@@H](n2c(=O)n(-c3ccc(Oc4ccccc4)cc3)c3c(N)nccc32)C1 [Amorphous, (R)-1-(1-acryloylpiperidin-3-yl)-4-amino-3-(4-phenoxyphenyl)-1H-imidazo[4,5-c]pyridin-2(3H)-one]
- Impurity number exceed the qualificated threshold [1, 5]: 1
- Purity [1, 5]: 99.57%
- Purity change [1, 5]: −0.23%
- Solid form [1, 5]: Amorphous
- Impurity number exceed the qualificated threshold [1, 6]: 1
- Purity [1, 6]: 99.65%
- Purity change [1, 6]: −0.15%
- Solid form [1, 6]: Amorphous
- Purity decrease ([1]; 40° C./75% RH, open package, 6 months): 3.46%
- Impurity number exceed the qualificated threshold [1, 7]: 4
- Purity [1, 7]: 96.34%
- Purity change [1, 7]: −3.46%
- Solid form [1, 7]: Amorphous
- Impurity number exceed the qualificated threshold ([1]; 40° C./75% RH, open packaged, 6 months, listed as prior art amorphous): four
- Impurity number exceed the qualificated threshold ([1]; 40° C./75% RH, open packaged, 6 months, listed as prior art solid): four
- Impurity number exceed the qualificated threshold [1, 8]: 2
- Purity [1, 8]: 99.18%
- Purity change [1, 8]: −0.62%
- Solid form [1, 8]: Amorphous
- Purity decrease ([1]; 60° C./75% RH, open package, 1 month): over 6.3%
- Impurity number exceed the qualificated threshold [1, 9]: 4
- Purity [1, 9]: 93.48%
- Purity change [1, 9]: −6.32%
- Solid form [1, 9]: Amorphous
- Impurity number exceed the qualificated threshold ([1]; 60° C./75% RH, open packaged, 1 month, listed as prior art amorphous): four
- Impurity number exceed the qualificated threshold ([1]; 60° C./75% RH, open packaged, 1 month, listed as prior art solid): four
- Purity decrease ([1]; 60° C./75% RH, sealed package, 1 month): 2.76%
- Impurity number exceed the qualificated threshold [1, 10]: 2
- Purity [1, 10]: 97.04%
- Purity change [1, 10]: −2.76%
- Solid form [1, 10]: Amorphous
- Impurity number exceed the qualificated threshold ([1]; 60° C./75% RH, sealed packaged, 1 month, listed as prior art amorphous): two
- Impurity number exceed the qualificated threshold ([1]; 60° C./75% RH, sealed packaged, 1 month, listed as prior art solid): two
- Impurity number exceed the qualificated threshold ([1]; Initial (before storage)): 1
- Purity ([1]; Initial (before storage)): 99.80%
- Chemical stability in words ([2]; 80° C.): significant degradation
- Final purity ([2]; 80° C.): 98.64%
- Purity change ([2]; 80° C.): −1.16%
- Initial purity [2]: 99.80%
- Weight gain at 80% RH ([3]; DVS, listed as Prior art solid): 3.69%
- Weight gain at 80% RH ([3]; DVS, listed as prior art solid): 3.69%
- Hygroscopicity class ([3]; listed as prior art solid): hygroscopic

Compound: C=CC(=O)N1CCC[C@@H](n2c(=O)n(-c3ccc(Oc4ccccc4)cc3)c3c(N)nccc32)C1 [Form CSI, (R)-1-(1-acryloylpiperidin-3-yl)-4-amino-3-(4-phenoxyphenyl)-1H-imidazo[4,5-c]pyridin-2(3H)-one]
- Chemical purity during storage ([1]; 25° C./60% RH, 6 months): above 99.8%
- Time for which crystalline state doesn't change (stable) ([1]; 25° C./60% RH): at least 6 months
- Impurity number exceed the qualificated threshold [1, 5]: 0
- Purity [1, 5]: 99.81%
- Purity change [1, 5]: −0.05%
- Solid form [1, 5]: Form CSI
- Impurity number exceed the qualificated threshold [1, 6]: 0
- Purity [1, 6]: 99.89%
- Purity change [1, 6]: 0.03%
- Solid form [1, 6]: Form CSI
- Chemical purity during storing ([1]; 40° C./75% RH 6 months and 60° C./75% RH 1 month): above 99.8%
- Time for which crystalline state doesn't change (stable) ([1]; 40° C./75% RH): at least 6 months
- Impurity number exceed the qualificated threshold [1, 7]: 0
- Purity [1, 7]: 99.81%
- Purity change [1, 7]: −0.05%
- Solid form [1, 7]: Form CSI
- Impurity number exceed the qualificated threshold [1, 8]: 0
- Purity [1, 8]: 99.92%
- Purity change [1, 8]: 0.06%
- Solid form [1, 8]: Form CSI
- Time for which crystalline state doesn't change ([1]; 60° C./75% RH, open or sealed package): at least 1 month
- Impurity number exceed the qualificated threshold [1, 9]: 0
- Purity [1, 9]: 99.86%
- Purity change [1, 9]: 0.00%
- Solid form [1, 9]: Form CSI
- Impurity number exceed the qualificated threshold [1, 10]: 0
- Purity [1, 10]: 99.85%
- Purity change [1, 10]: −0.01%
- Solid form [1, 10]: Form CSI
- Impurity number exceed the qualificated threshold ([1]; Initial (before storage)): 0
- Purity ([1]; Initial (before storage)): 99.86%
- Impurity content versus the qualificated threshold ([1]; throughout the stability investigation processes): does not exceed the qualificated threshold; also recorded: did not exceed the qualificated threshold
- Time for which chemical purity remains substantially unchanged ([2]; 80° C.): at least 2 days
- Chemical stability in words ([2]; 80° C.): basically remains unchanged
- Final purity ([2]; 80° C.): 99.95%
- Purity change ([2]; 80° C.): 0.01%
- Initial purity [2]: 99.94%
- Weight gain of Form CSI relative to that of the prior art ([3]; DVS): 1/7
- Weight gain at 80% RH ([3]; DVS): 0.53%
- Hygroscopicity class [3]: slightly hygroscopic
- Physical stability on formulation process (XRPD) [4]: physically stable
